Laboratory results from ChEMBL document CHEMBL3885881, “DrugMatrix”.

Organism: Rattus norvegicus
Experiment: DrugMatrix - Regimen: Daily Repeat
Format: toxicity, organism-based, Sprague-Dawley
Set-up: regimen Daily Repeat, gender Male, age 6-8 weeks
Conditions: in vivo, po, route oral GAVAGE, […]; for ABSOLUTE BASOPHIL / ABSOLUTE EOSINOPHIL / ABSOLUTE LYMPHOCYTE / ABSOLUTE MONOCYTE / ABSOLUTE SEGMENTED NEUTROPHIL / BASOPHIL / EOSINOPHIL / ERYTHROCYTE COUNT / HEMATOCRIT / HEMOGLOBIN / LEUKOCYTE COUNT / LYMPHOCYTE / MEAN CORPUSCULAR HEMOGLOBIN / MEAN CORPUSCULAR HEMOGLOBIN CONCENTRATION / MEAN CORPUSCULAR VOLUME / MONOCYTE / NEUTROPHIL / NUCLEATED RED BLOOD CELLS / PLATELET COUNT: tissue Blood; for ALANINE AMINOTRANSFERASE / ALBUMIN / ALKALINE PHOSPHATASE / ASPARTATE AMINOTRANSFERASE / BLOOD UREA NITROGEN / CARBON DIOXIDE / CHLORIDE / CHOLESTEROL / CREATINE PHOSPHOKINASE / CREATININE / GLUCOSE / LACTATE DEHYDROGENASE / LIPASE / PHOSPHORUS / POTASSIUM / SODIUM / TOTAL BILIRUBIN / TOTAL PROTEIN / URIC ACID: tissue Plasma
[1] = 0 mg/kg, 72 h, dose level Control, time 3 day
[2] = 0 mg/kg, 120 h, dose level Control, time 5 day
[3] = 30 mg/kg, 72 h, dose level Low, time 3 day
[4] = 30 mg/kg, 120 h, dose level Low, time 5 day

## Cc1ccc(-c2cc(C(F)(F)F)nn2-c2ccc(S(N)(=O)=O)cc2)cc1 [CELECOXIB]
[1]
  ABSOLUTE BASOPHIL: 0 CELLS/uL
  ABSOLUTE EOSINOPHIL: 104.17 CELLS/uL
  ABSOLUTE LYMPHOCYTE: 14547 CELLS/uL
  ABSOLUTE MONOCYTE: 292 CELLS/uL
  ABSOLUTE SEGMENTED NEUTROPHIL: 1640.17 CELLS/uL
  BASOPHIL: 0%
  EOSINOPHIL: 0.67%
  ERYTHROCYTE COUNT: 5.35 x10E6/uL
  HEMATOCRIT: 33.67%
  HEMOGLOBIN: 13.38 G/DL
  LEUKOCYTE COUNT: 16.58 x10E3/uL
  LYMPHOCYTE: 87.5%
  MEAN CORPUSCULAR HEMOGLOBIN: 25.05 pg
  MEAN CORPUSCULAR HEMOGLOBIN CONCENTRATION: 39.78 G/DL
  MEAN CORPUSCULAR VOLUME: 62.97 fL
  MONOCYTE: 1.83%
  NEUTROPHIL: 10%
  NUCLEATED RED BLOOD CELLS: 0 /100WBC
  PLATELET COUNT: 1274.5 x10E3/uL
  ALANINE AMINOTRANSFERASE: 76.83 u/L
  ALBUMIN: 3.97 G/DL
  ALKALINE PHOSPHATASE: 347 u/L
  ASPARTATE AMINOTRANSFERASE: 97.17 u/L
  BLOOD UREA NITROGEN: 14.33 mg/dL
  CARBON DIOXIDE: 25.5 mmol/L
  CHLORIDE: 100.33 MEQ/L
  CHOLESTEROL: 68.67 mg/dL
  CREATINE PHOSPHOKINASE: 659.17 u/L
  CREATININE: 0.32 mg/dL
  GLUCOSE: 160.67 mg/dL
  LACTATE DEHYDROGENASE: 271.5 u/L
  LIPASE: 11.67 u/L
  PHOSPHORUS: 10.65 mg/dL
  POTASSIUM: 5.95 MEQ/L
  SODIUM: 139.65 MEQ/L
  TOTAL BILIRUBIN: 0.2 mg/dL
  TOTAL PROTEIN: 5.72 G/DL
  URIC ACID: 1.37 mg/dL
[2]
  ABSOLUTE BASOPHIL: 0 CELLS/uL
  ABSOLUTE EOSINOPHIL: 331.5 CELLS/uL
  ABSOLUTE LYMPHOCYTE: 15021.67 CELLS/uL
  ABSOLUTE MONOCYTE: 376.5 CELLS/uL
  ABSOLUTE SEGMENTED NEUTROPHIL: 3070.33 CELLS/uL
  BASOPHIL: 0%
  EOSINOPHIL: 1.83%
  ERYTHROCYTE COUNT: 5.24 x10E6/uL
  HEMATOCRIT: 33.22%
  HEMOGLOBIN: 13.2 G/DL
  LEUKOCYTE COUNT: 18.8 x10E3/uL
  LYMPHOCYTE: 79.67%
  MEAN CORPUSCULAR HEMOGLOBIN: 25.17 pg
  MEAN CORPUSCULAR HEMOGLOBIN CONCENTRATION: 39.73 G/DL
  MEAN CORPUSCULAR VOLUME: 63.38 fL
  MONOCYTE: 2%
  NEUTROPHIL: 16.5%
  NUCLEATED RED BLOOD CELLS: 0 /100WBC
  PLATELET COUNT: 1142.67 x10E3/uL
  ALANINE AMINOTRANSFERASE: 52.5 u/L
  ALBUMIN: 3.9 G/DL
  ALKALINE PHOSPHATASE: 284.5 u/L
  ASPARTATE AMINOTRANSFERASE: 81.33 u/L
  BLOOD UREA NITROGEN: 16 mg/dL
  CARBON DIOXIDE: 25.33 mmol/L
  CHLORIDE: 99.5 MEQ/L
  CHOLESTEROL: 74.83 mg/dL
  CREATINE PHOSPHOKINASE: 448.33 u/L
  CREATININE: 0.37 mg/dL
  GLUCOSE: 164.17 mg/dL
  LACTATE DEHYDROGENASE: 290.67 u/L
  LIPASE: 6.83 u/L
  PHOSPHORUS: 11.5 mg/dL
  POTASSIUM: 6.28 MEQ/L
  SODIUM: 139.5 MEQ/L
  TOTAL BILIRUBIN: 0.13 mg/dL
  TOTAL PROTEIN: 5.55 G/DL
  URIC ACID: 1.12 mg/dL
[3]
  ABSOLUTE BASOPHIL: 0 CELLS/uL
  ABSOLUTE EOSINOPHIL: 104 CELLS/uL
  ABSOLUTE LYMPHOCYTE: 15747.67 CELLS/uL
  ABSOLUTE MONOCYTE: 360 CELLS/uL
  ABSOLUTE SEGMENTED NEUTROPHIL: 1788.33 CELLS/uL
  BASOPHIL: 0%
  EOSINOPHIL: 0.67%
  ERYTHROCYTE COUNT: 5.61 x10E6/uL
  HEMATOCRIT: 36.13%
  HEMOGLOBIN: 13.97 G/DL
  LEUKOCYTE COUNT: 18 x10E3/uL
  LYMPHOCYTE: 87.33%
  MEAN CORPUSCULAR HEMOGLOBIN: 24.9 pg
  MEAN CORPUSCULAR HEMOGLOBIN CONCENTRATION: 38.63 G/DL
  MEAN CORPUSCULAR VOLUME: 64.4 fL
  MONOCYTE: 2%
  NEUTROPHIL: 10%
  NUCLEATED RED BLOOD CELLS: 0.33 /100WBC
  PLATELET COUNT: 1151.67 x10E3/uL
  ALANINE AMINOTRANSFERASE: 77 u/L
  ALBUMIN: 4.2 G/DL
  ALKALINE PHOSPHATASE: 443 u/L
  ASPARTATE AMINOTRANSFERASE: 79.33 u/L
  BLOOD UREA NITROGEN: 10.67 mg/dL
  CARBON DIOXIDE: 22.67 mmol/L
  CHLORIDE: 102.67 MEQ/L
  CHOLESTEROL: 51 mg/dL
  CREATINE PHOSPHOKINASE: 260 u/L
  CREATININE: 0.12 mg/dL
  GLUCOSE: 164.33 mg/dL
  LACTATE DEHYDROGENASE: 234.67 u/L
  LIPASE: 10.67 u/L
  PHOSPHORUS: 11.63 mg/dL
  POTASSIUM: 6.08 MEQ/L
  SODIUM: 142.6 MEQ/L
  TOTAL BILIRUBIN: 0.13 mg/dL
  TOTAL PROTEIN: 6.07 G/DL
  URIC ACID: 1.27 mg/dL
[4]
  ABSOLUTE BASOPHIL: 0 CELLS/uL
  ABSOLUTE EOSINOPHIL: 252.67 CELLS/uL
  ABSOLUTE LYMPHOCYTE: 15009.33 CELLS/uL
  ABSOLUTE MONOCYTE: 640.67 CELLS/uL
  ABSOLUTE SEGMENTED NEUTROPHIL: 3164 CELLS/uL
  BASOPHIL: 0%
  EOSINOPHIL: 1.33%
  ERYTHROCYTE COUNT: 5.76 x10E6/uL
  HEMATOCRIT: 36.13%
  HEMOGLOBIN: 14 G/DL
  LEUKOCYTE COUNT: 19.07 x10E3/uL
  LYMPHOCYTE: 78.67%
  MEAN CORPUSCULAR HEMOGLOBIN: 24.33 pg
  MEAN CORPUSCULAR HEMOGLOBIN CONCENTRATION: 38.73 G/DL
  MEAN CORPUSCULAR VOLUME: 62.87 fL
  MONOCYTE: 3.33%
  NEUTROPHIL: 16.67%
  NUCLEATED RED BLOOD CELLS: 0 /100WBC
  PLATELET COUNT: 1265.67 x10E3/uL
  ALANINE AMINOTRANSFERASE: 70.67 u/L
